# Source: PMC12766730, “Controlled Self-Immolative Release of β‑Lapachone via an Optimized para-Hydroxybenzyl Linker for Targeted Pancreatic Cancer Therapy” (Journal of the American Chemical Society, 2025)
# Read-outs that look alike come from different tables or passages of the source.
# What was measured:
# [1] = HPLC stability assay of prodrugs in buffers pH 3, 5, 7, 7.4 (PBS), 9 at 37 °C for 72 h without trigger; format: physicochemical; settings: for stability of the prodrug without triggering enzyme: 37 °C, 72 h, pH 3–9; for premature lapachone release, percent of total prodrug: 72 h at 37 °C, no H2O2
# Protocol: The diastereomeric mixture of each β-glucuronide–PHB-β-lapachone prodrug (16a–j) and PAB derivative 22 were then tested for stability in citrate-phosphate buffers across a range of pHs (3, 5, 7, 7.4 (PBS), 9) via an HPLC stability assay. For derivatives 16a, 16b, 16d, 16e, 16h, and 16j, when no β-glucuronidase enzyme was added, both diastereomers of 16 were fully stable at 37 °C for 72 h (Figures a,d, S63, S64, S66–68, S71, and S73). […] This premature release was greatest at acidic pH 3 for 16g, with very minimal lapachone release detected at pH 5–9 (Figure c). The released lapachone was quantified and compared to the starting concentration of each prodrug to calculate the percent of the prodrug that had been prematurely released (Figures f,g, S76). […] Therefore, a trade-off exists between ring activation, improving the release rate from 3 while also decreasing prodrug stability, and it rendered 16g clinically disadvantageous.  5 Stability of prodrugs is pH dependent. The representative HPLC traces for (a) a stable prodrug 16a and (b) an unstable prodrug 16g are shown after incubation at 37 °C in pH 7.4 PBS buffer. […] (c) The area of the lapachone peak for 16g normalized to the IS was plotted, displaying substantial growth over time at pH 3. […] For panels c–g, each value is plotted as the mean ± SD of three replicates. The HPLC traces (Figures S50–S62) and peak area graphs (Figures S63–S75) for all other derivatives can be found in the Supporting Information. The stability of 26 was also evaluated from pH 3–9 (Figures d,f–h S86–S87). […] This degradation was the largest at pH 9, with a measurable decrease in the prodrug peak area after 72 h (Figure g). The lapachone released after 72 h was quantified using a standard curve (Tables S6.1–S6.2). At pH 3 and 5, approximately 0.2% of the total prodrug lapachone had been released.
# AsPC-1 = test: PDAC cell viability after 72 h of treatment, AsPC-1; format: cell-based; settings: for IC50: Homo sapiens
# Protocol: (§1) All ortho-quinone prodrug derivatives were tested on two pancreatic cancer cell lines, PANC-1 and AsPC-1, to assess efficacy in cell killing (Figures , S88–89, S91, Tables , and S8.1). Exogenous β-glucuronidase was added to the cell media to mimic the extracellular enzyme present in the TME. […] Those derivatives with release rates slower than that of 16a, like 16e, had less efficacy in cells comparatively (Table ).
# (§2) 7 PDAC cell viability with prodrug treatment. Representative PANC-1 (a) and AsPC-1 (b) cell viability data of four β-lapachone prodrug derivatives after 72 h of treatment with exogenous β-glucuronidase added. Panels (c, d) show the toxicity of functional prodrugs up to 100 μM in PANC-1 (c) and AsPC-1 (d) cells without exogenous β-glucuronidase enzyme present after 72 h incubation.
# (§3) To assess the TW of the prodrug derivatives, we tested each of them in both the PANC-1 and AsPC-1 cell lines at up to 100 μM without the β-glucuronidase enzyme present. In agreement with the HPLC stability assay data, we saw no toxicity in all stable prodrug derivatives up to this concentration (Figure c,d). […] In comparison, all the stable glucuronide prodrug derivatives retained 100% viability at 100 μM. […] It is generally considered that a drug has a good therapeutic safety profile if the TI is greater than 10, which our best derivatives far exceed, signaling that our prodrug is safe to deliver systemically in future in vivo experiments and should not cause any adverse effects in areas where β-glucuronidase is not overexpressed. ,
# PANC-1 = test: PDAC cell viability after 72 h of treatment, PANC-1; format: cell-based
# Protocol: as §1, §2, §3
# [2] = Release of β-lapachone (1) from deprotected PHB/PAB linkers (3 or 25) in citrate-phosphate buffers pH 3–10, analytical HPLC; format: physicochemical; settings: for release rate faster than unsubstituted parent: 3f vs 3a, 25 vs 4
# Protocol: First, the purified mixture of two prodrug diastereomers (16a–j) for each PHB derivative was incubated with β-glucuronidase. This enabled full removal of the glucuronide moiety from both diastereomers of the prodrug within 2–15 min, leaving a mixture of two PHB-β-lapachone enantiomers (3a–j, Figure c). For PAB compound 22, penicillin G amidase was used in place of β-glucuronidase to give a mixture of two PAB-β-lapachone enantiomers (25). The 3 (or 25) solution was then spiked into citrate-phosphate buffers from pH 3–10, and release of 1 from 3 (or 25) was measured at various time points by analytical HPLC. A single peak for the two enantiomers of 3 was observed after glucuronide removal, and thus the measured k obs was for both enantiomers in the mixture.
# 3 Release rate comparison for PHB and PAB prodrugs. The mechanisms of release for the β-glucuronide–PHB prodrug derivatives (a) and the PAB derivative (b) are shown. β-glucuronidase or penicillin G amidase deprotects the PHB or PAB linkers, yielding 3 or 25, respectively. A 1,6-elimination then occurs, releasing the hydroquinone form of β-lapachone, which then oxidizes into the ortho-quinone. (c) The substituents on the PHB/PAB linker for each derivative are shown and classified into which strategy they employed, lowering phenolate pK a or stabilizing the elimination TS. BLap = β-lapachone in its α-hydroxy ketol form (refer to panel a). The predicted pK a values are also shown, calculated using MolGpKa. (d) The representative HPLC traces of a release experiment for 3g at pH 7 are shown (RT: retention time) normalized to the warfarin (WF) internal standard (IS, RT = 11.6 min). The peak for 3g (RT = 12.5 min) decreases while the peak for 1 (RT = 10.8 min) increases over time. The traces for all other derivatives at each pH are included in Figures S10–S20, S34–S45. (e) The calculated k obs values from these release kinetic experiments for each PHB derivative are plotted versus pH on a logarithmic scale. Derivatives 3a–e were designed to lower the PHB phenol pK a, while derivatives 3f–j were designed to stabilize the 1,6-elimination TS. (f) The first-order reaction rate constants of the PAB derivatives 4 (pink) and 25 (purple) are plotted together with 3a (black) and the best-performing PHB derivatives 3f (cyan) and 3i (dark green) for direct comparison. The derivations of the plotted first-order k obs values from linearized initial velocities measured in triplicate are shown in Figures S23–S33. […]
# Over time, the intensity of the 3/25 peak decreased, while the intensity of the 1 peak increased (Figure d). A standard curve for β-lapachone (Figure S22) was prepared, enabling quantification of the released β-lapachone.
# [3] = ASPC1, exogenous β-glucuronidase added, average ± SD of biological replicates, read-out: AsPC-1 IC50
# [4] = Homo sapiens, PANC-1, exogenous β-glucuronidase added, average ± SD of biological replicates, read-out: PANC-1 IC50
# [5] = exogenous β-glucuronidase added, average ± SD of biological replicates
# [6] = ASPC1, exogenous β-glucuronidase added, representative experiment, read-out: IC50 on AsPC-1, representative viability data (Figure 7b)
# [7] = Homo sapiens, PANC-1, exogenous β-glucuronidase added, representative experiment, read-out: IC50 on PANC-1, representative viability data (Figure 7a)
Compound,stability of the prodrug without triggering enzyme [1],IC50 (AsPC-1; [3]) [µM],IC50 (PANC-1; [4]) [µM],other results
"CCCN(C)S(=O)(=O)c1cc(CC2(O)C(=O)C3=C(OC(C)(C)CC3)c3ccccc32)ccc1O[C@@H]1O[C@H](C(=O)O)[C@@H](O)[C@H](O)[C@H]1O (single isomer, unassigned) [16e]",fully stable,–,–,–
COc1cc(O[C@@H]2O[C@H](C(=O)O)[C@@H](O)[C@H](O)[C@H]2O)cc(OC)c1CC1(O)C(=O)C2=C(OC(C)(C)CC2)c2ccccc21 (mixture of isomers) [16g],trace β-lapachone release was detected,1.6 ± 0.6,1.2 ± 0.3,"IC50 (AsPC-1; ASPC1, no enzyme, value printed in the picture, read-out: IC50, prodrug toxicity without β-glucuronidase on AsPC-1 (Figure 7d)): 68 µM; IC50 (AsPC-1; ASPC1, no release-triggering enzyme, tested up to 100 μM, read-out: IC50 in AsPC-1 without exogenous β-glucuronidase): 75 ± 7 µM; IC50 (PANC-1; Homo sapiens, PANC-1, no enzyme, value printed in the picture, read-out: IC50, prodrug toxicity without β-glucuronidase on PANC-1 (Figure 7c)): 20 µM; IC50 (PANC-1; Homo sapiens, PANC-1, no release-triggering enzyme, tested up to 100 μM, read-out: IC50 in PANC-1 without exogenous β-glucuronidase): 26 ± 6 µM"
CC1(C)CCC2=C(O1)c1ccccc1C(O)(Cc1cc(F)c(O[C@@H]3O[C@H](C(=O)O)[C@@H](O)[C@H](O)[C@H]3O)c(F)c1)C2=O (some centres unmarked) [16b],fully stable,24,11 ± 2,–
COc1cc(NC(=O)Cc2ccccc2)ccc1CC1(O)C(=O)C2=C(OC(C)(C)CC2)c2ccccc21 (centres unmarked) [compound 22],trace β-lapachone release was detected,–,–,–
CC1(C)CCC2=C(O1)c1ccccc1C(O)(Cc1c(F)c(F)c(O[C@@H]3O[C@H](C(=O)O)[C@@H](O)[C@H](O)[C@H]3O)c(F)c1F)C2=O (some centres unmarked) [16c],trace β-lapachone release was detected,–,–,AsPC-1 IC50 (AsPC-1; [5]): Inactive; PANC-1 IC50 (PANC-1; [5]): Inactive
CC(c1ccc(O[C@@H]2O[C@H](C(=O)O)[C@@H](O)[C@H](O)[C@H]2O)cc1)C1(O)C(=O)C2=C(OC(C)(C)CC2)c2ccccc21 (some centres unmarked) [16i],trace β-lapachone release was detected,0.9 ± 0.5,0.8 ± 0.5,IC50 (AsPC-1; [6]): 0.5 µM; IC50 (PANC-1; [7]): 0.3 µM
COc1cc(CC2(O)C(=O)C3=C(OC(C)(C)CC3)c3ccccc32)cc(OC)c1O[C@@H]1O[C@H](C(=O)O)[C@@H](O)[C@H](O)[C@H]1O (some centres unmarked) [16h],fully stable,3.2 ± 1.7,1.2 ± 0.4,–
"CC1(C)CCC2=C(O1)c1ccccc1C(=O)C2=O [compound 1, β-lapachone, reference compound]",–,5.4 ± 0.7,1.8 ± 0.2,IC50 (AsPC-1; [6]): 4.7 µM
COc1cc(O)cc(OC)c1CC1(O)C(=O)C2=C(OC(C)(C)CC2)c2ccccc21 (centres unmarked) [3g],–,–,–,"acceleration of release rate at pH 5 ([2]; pH 5, compared with unsubstituted 3a): ~2200 fold; acceleration of release rate at pH 7.5 ([2]; pH 7.5, compared with unsubstituted 3a): ~800 fold"
COCCOc1cc(O[C@@H]2O[C@H](C(=O)O)[C@@H](O)[C@H](O)[C@H]2O)ccc1CC1(O)C(=O)C2=C(OC(C)(C)CC2)c2ccccc21 (some centres unmarked) [16j],fully stable,2.8 ± 1,1.1 ± 0.4,–
"CC1(C)CCC2=C(O1)c1ccccc1C(O)(Cc1ccccc1)C2=O (centres unmarked) [compound 27, reference compound]",–,–,–,"IC50 (PANC-1; exogenous β-glucuronidase added, average ± SD of biological replicates, read-out: PANC-1 IC50): 70 µM; IC50 (PANC-1; no release-triggering enzyme, tested up to 100 μM, read-out: IC50 in PANC-1 without exogenous β-glucuronidase): 70 µM"
COc1cc(N)ccc1CC1(O)C(=O)C2=C(OC(C)(C)CC2)c2ccccc21 (centres unmarked) [compound 25],–,–,–,release rate faster than unsubstituted parent [2]: around 2 orders of magnitude
COc1cc(O)ccc1CC1(O)C(=O)C2=C(OC(C)(C)CC2)c2ccccc21 (centres unmarked) [3f],–,–,–,release rate faster than unsubstituted parent [2]: around 2 orders of magnitude
CC1(C)CCC2=C(O1)c1ccccc1C(O)(Cc1ccc(O[C@@H]3O[C@H](C(=O)O)[C@@H](O)[C@H](O)[C@H]3O)cc1)C2=O (some centres unmarked) [16a],fully stable,19 ± 3,9.6 ± 0.9,IC50 (AsPC-1; [6]): 16 µM; IC50 (PANC-1; [7]): 11 µM
"CC1(C)CCC2=C(O1)c1ccccc1C(O)(Cc1ccc(B(O)O)cc1)C2=O (centres unmarked) [compound 26, reference compound]",–,–,–,"premature lapachone release, percent of total prodrug ([1]; pH 3): approximately 0.2%; premature lapachone release, percent of total prodrug ([1]; pH 5): approximately 0.2%; premature lapachone release, percent of total prodrug ([1]; pH 7): ~0.6%; premature lapachone release, percent of total prodrug ([1]; pH 7.4): ~2.3%; premature lapachone release, percent of total prodrug ([1]; pH 9): ~10.9%"
CC1(C)CCC2=C(O1)c1ccccc1C(O)(Cc1c(F)cc(O[C@@H]3O[C@H](C(=O)O)[C@@H](O)[C@H](O)[C@H]3O)cc1F)C2=O (some centres unmarked) [16d],fully stable,–,21 ± 3,–
